# Experimental data as given in patent US20030021856A1, “New use of ammonium compounds and/or urea” (priority 1996, published 2003).
# Tests used:
# [1] = supplied intravenously and perorally; known by intensive care physicians; cited from earlier work
# [2] = Peroral self-administration of ammonium chloride by the inventor (respiratory gas exchange); type: in vivo, human; conditions: 80 mmoles ammonium chloride perorally
# From the text: Please replace the paragraph beginning at line 1 on page 5 with the following: portal area, especially at acidosis, can be utilized for synthesis of glutamine in the liver. […] When the patient treated is breathing by themself, the supply of ammonium will bring about a so-called compensatory hyperventilation. […] Furthermore, there is a report on the concentration of urea in the vitreous body of dead SIDS patients which is compared to autopsy material from children deceased from other causes at the same age [Blumenfeld T A, et al, Am J Clin Pathol, 71, 219-223 (1979)]. It appeared that children deceased from SIDS have lower urea values than children deceased from other causes. […] The low concentration of urea found is thus not inconsistent with the hypothesis put forward here.
structure (smiles),measurement,setting,value
Cl.N [ammonium chloride],effect on base excess values,[1],lowers base excess values
same,duration of the increased carbon dioxide elimination,[2],~1 h
same,effect on ventilation,[2],slight hyperventilation
same,increase in elimination of carbon dioxide,[2],30 mL/min
same,resorption from the gastrointestinal tract,[2],resorbed very quickly
same,total carbon dioxide corresponding to the increased elimination,[2]; 30 ml/min for nearly 1h,about 80 mmoles
same,RQ (Respiratory Quotient = carbon dioxide emission / oxygen gas uptake) after administration,[2]; value at rest 0.82,0.87
